Patent US12157741B2, “Macrocyclic inhibitors of DYRK1A” (DANA-FARBER CANCER INSTITUTE, INC., priority 2018, dated 2024)
Read-outs that look alike come from different tables or passages of the source.

Assays:
various enzymes [1] = biological target: various enzymes (Homo sapiens, UniProt P00533); details: EGFR; 1 uM
Description: (§1) Ambit profiling from Eurofins (formerly Discoverx) was conducted in accordance with the manufacturer's instructions.

various enzymes [2] = biological target: T1, various enzymes (Homo sapiens, UniProt Q13043); details: MST1; 1 uM
T1 sequence (Q13043 1-487): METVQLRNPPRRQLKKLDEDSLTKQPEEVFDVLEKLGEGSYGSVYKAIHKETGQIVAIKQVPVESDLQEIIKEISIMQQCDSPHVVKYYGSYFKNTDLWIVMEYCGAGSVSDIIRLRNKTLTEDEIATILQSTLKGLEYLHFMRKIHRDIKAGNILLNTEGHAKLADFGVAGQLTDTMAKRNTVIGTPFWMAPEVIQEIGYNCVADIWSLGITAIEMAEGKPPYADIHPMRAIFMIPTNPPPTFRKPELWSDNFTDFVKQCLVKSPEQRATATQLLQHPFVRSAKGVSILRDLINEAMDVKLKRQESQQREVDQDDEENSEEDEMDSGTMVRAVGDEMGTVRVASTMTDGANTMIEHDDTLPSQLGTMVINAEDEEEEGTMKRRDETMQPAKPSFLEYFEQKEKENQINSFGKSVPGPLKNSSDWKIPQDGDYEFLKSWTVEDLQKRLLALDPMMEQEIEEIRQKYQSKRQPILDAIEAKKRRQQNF
Description: as §1

various enzymes [3] = biological target: various enzymes (Homo sapiens, UniProt P00533, L858R)
Description: as §1

various enzymes [4] = biological target: various enzymes (Homo sapiens, UniProt O60674); details: JAK2(JH1domain-catalytic); 1 uM
Description: as §1

various enzymes [5] = biological target: T2, various enzymes (Homo sapiens, UniProt Q6PHR2); details: ULK3; 1 uM
T2 sequence (Q6PHR2 1-472): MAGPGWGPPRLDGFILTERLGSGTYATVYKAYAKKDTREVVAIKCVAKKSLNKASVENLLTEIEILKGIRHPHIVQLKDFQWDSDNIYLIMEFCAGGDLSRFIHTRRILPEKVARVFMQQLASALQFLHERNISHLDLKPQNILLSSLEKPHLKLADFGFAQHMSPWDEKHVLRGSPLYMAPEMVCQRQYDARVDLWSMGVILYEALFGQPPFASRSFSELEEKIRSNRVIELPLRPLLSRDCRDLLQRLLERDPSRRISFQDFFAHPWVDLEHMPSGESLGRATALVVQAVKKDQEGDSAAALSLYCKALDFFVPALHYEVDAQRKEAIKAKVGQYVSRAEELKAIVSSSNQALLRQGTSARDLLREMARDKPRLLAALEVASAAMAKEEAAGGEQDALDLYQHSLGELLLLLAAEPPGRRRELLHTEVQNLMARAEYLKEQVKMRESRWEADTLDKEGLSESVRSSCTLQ
Description: as §1

various enzymes [6] = biological target: various enzymes (Homo sapiens, UniProt P00533, DEL746-750); details: EGFR(E746-A750del); 1 uM
Description: as §1

various enzymes [7] = biological target: T3, various enzymes (Homo sapiens, UniProt O14733); details: MKK7; 1 uM
T3 sequence (O14733 1-419): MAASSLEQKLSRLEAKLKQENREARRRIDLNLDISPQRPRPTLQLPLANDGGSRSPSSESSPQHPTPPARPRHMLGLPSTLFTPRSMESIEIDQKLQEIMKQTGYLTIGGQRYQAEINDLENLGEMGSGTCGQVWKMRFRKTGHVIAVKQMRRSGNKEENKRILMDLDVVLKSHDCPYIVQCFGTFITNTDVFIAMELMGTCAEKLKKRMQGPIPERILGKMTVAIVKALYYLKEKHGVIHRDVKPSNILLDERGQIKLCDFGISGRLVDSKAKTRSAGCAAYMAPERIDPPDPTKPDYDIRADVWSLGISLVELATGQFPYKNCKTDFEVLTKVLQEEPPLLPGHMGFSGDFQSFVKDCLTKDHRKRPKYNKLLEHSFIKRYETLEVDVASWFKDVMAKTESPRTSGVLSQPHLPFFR
Description: as §1

various enzymes [8] = biological target: various enzymes (Homo sapiens, UniProt P00533, L858R/T790M)
Description: as §1

various enzymes [9] = biological target: various enzymes (Homo sapiens, UniProt P00533, DELINS747-751S); details: EGFR(L747-T751del, Sins); 1 uM
Description: as §1

various enzymes [10] = biological target: various enzymes (Homo sapiens, UniProt P00533, L861Q)
Description: as §1

various enzymes [11] = biological target: various enzymes (Homo sapiens, UniProt O15075); details: DCAMKL1; 1 uM
Description: as §1

various enzymes [12] = biological target: various enzymes (Homo sapiens, UniProt P29597); details: 1 uM
Sequence of various enzymes (Homo sapiens, UniProt P29597) (P29597 whole entry): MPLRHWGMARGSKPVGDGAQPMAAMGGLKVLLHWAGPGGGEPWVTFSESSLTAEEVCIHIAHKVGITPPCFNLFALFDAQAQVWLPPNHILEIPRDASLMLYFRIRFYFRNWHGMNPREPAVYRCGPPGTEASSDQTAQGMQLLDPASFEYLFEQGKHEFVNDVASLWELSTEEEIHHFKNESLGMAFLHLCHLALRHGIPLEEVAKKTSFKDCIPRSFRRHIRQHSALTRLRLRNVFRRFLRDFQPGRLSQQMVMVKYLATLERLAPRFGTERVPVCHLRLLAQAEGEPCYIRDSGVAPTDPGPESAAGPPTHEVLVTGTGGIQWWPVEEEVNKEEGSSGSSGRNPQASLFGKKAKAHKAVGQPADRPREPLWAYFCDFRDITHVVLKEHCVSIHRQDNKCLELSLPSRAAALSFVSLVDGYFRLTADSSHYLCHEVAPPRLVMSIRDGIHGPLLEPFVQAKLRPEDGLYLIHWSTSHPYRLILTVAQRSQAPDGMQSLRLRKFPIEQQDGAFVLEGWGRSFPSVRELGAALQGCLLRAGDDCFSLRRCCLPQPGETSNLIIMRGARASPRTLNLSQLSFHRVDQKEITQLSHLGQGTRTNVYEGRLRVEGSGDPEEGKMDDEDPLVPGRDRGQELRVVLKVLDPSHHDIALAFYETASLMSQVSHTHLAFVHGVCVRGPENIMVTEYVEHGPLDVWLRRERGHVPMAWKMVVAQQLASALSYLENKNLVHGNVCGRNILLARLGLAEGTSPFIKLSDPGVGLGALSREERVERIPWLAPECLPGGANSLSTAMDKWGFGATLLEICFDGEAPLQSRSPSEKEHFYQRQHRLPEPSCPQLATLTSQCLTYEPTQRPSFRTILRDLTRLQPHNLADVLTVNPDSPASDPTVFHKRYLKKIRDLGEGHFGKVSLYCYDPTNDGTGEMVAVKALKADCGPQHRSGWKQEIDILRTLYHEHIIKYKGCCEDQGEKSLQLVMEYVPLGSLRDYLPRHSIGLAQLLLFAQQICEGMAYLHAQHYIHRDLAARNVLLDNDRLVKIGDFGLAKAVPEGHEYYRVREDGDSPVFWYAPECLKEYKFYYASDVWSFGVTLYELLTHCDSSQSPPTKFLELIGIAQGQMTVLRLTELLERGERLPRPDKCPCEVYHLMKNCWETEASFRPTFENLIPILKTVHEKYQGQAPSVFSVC
Description: as §1

Sequence of various enzymes (Homo sapiens, UniProt O60674) (O60674 whole entry): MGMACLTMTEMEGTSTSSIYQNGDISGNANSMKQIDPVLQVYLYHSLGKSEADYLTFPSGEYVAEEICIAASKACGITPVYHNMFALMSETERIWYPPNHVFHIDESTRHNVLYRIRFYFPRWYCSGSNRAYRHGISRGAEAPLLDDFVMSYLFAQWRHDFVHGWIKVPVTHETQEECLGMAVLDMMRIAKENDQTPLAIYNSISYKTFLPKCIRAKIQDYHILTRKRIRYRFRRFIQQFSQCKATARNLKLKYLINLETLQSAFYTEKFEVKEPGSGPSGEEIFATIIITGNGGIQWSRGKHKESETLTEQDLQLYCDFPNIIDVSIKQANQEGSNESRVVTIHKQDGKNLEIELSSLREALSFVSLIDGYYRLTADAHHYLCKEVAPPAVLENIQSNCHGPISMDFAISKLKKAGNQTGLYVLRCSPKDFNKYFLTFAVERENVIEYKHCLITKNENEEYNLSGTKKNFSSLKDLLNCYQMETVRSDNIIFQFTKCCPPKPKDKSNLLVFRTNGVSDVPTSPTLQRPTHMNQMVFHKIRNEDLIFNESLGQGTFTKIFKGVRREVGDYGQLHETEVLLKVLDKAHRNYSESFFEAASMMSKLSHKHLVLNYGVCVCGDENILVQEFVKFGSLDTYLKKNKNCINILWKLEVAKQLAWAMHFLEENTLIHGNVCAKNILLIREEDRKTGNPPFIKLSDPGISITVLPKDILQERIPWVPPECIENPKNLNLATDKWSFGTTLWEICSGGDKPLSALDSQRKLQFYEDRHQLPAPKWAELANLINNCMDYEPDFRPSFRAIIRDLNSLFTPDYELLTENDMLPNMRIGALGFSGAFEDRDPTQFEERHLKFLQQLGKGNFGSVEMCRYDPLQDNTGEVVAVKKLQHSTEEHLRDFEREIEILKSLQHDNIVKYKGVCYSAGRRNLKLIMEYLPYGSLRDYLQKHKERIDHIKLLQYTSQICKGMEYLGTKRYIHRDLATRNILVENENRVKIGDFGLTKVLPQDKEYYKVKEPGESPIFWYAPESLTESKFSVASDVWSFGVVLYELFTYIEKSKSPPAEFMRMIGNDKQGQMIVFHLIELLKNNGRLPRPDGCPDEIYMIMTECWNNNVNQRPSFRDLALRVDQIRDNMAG
Sequence of various enzymes (Homo sapiens, UniProt O15075) (O15075 whole entry): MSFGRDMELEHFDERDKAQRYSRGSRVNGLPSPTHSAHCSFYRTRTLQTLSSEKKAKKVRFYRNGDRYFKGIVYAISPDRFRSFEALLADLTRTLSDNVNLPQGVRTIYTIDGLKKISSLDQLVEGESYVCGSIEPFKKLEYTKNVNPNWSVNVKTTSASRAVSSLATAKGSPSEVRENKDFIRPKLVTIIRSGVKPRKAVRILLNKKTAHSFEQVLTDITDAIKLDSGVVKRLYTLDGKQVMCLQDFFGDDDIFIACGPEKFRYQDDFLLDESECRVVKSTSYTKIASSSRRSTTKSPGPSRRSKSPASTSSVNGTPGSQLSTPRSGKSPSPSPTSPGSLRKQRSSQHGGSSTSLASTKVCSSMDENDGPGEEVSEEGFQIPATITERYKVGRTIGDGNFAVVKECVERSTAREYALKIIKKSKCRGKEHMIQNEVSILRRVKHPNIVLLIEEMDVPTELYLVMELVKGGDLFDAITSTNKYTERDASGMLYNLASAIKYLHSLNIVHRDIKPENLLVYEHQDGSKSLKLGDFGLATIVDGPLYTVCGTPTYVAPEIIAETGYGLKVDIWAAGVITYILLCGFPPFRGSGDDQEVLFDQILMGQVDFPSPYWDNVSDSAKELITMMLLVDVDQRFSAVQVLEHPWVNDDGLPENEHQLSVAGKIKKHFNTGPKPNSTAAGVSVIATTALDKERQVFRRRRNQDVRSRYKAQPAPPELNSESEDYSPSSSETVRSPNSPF

| SMILES | Ambit profiling (various enzymes [1]) | Ambit profiling (various enzymes [2]) | Ambit profiling (various enzymes [3]; EGFR(L856R), 1 uM) | Ambit profiling (various enzymes [4]) | Ambit profiling (various enzymes [5]) | Ambit profiling (various enzymes [6]) | Ambit profiling (various enzymes [7]) | Ambit profiling (various enzymes [8]; EGFR(L858R, T790M), 1 uM) | Ambit profiling (various enzymes [9]) | Ambit profiling (various enzymes [10]; EGFR(L861Q), 1 uM) | Ambit profiling (various enzymes [11]) | Ambit profiling (various enzymes [12]; TYK2(JH1domain-catalytic)) | Ambit profiling (various enzymes [12]; TYK2(JH2domain-pseudokinase)) | Ambit profiling (various enzymes [3]) | Ambit profiling (various enzymes [8]) | Ambit profiling (various enzymes [10]) |
| --- | --- | --- | --- | --- | --- | --- | --- | --- | --- | --- | --- | --- | --- | --- | --- | --- |
| CN1Cc2nn(C)cc2-c2cnc3[nH]cc(c3c2)-c2cnn(c2)CCCC1=O [Compound 41, (Z)-31,5-dimethyl-11H,21H,31H-5-aza-2(3,5)-pyrrolo[2,3-b]pyridina-1(4,1),3(4,3)-dipyrazolacyclononaphan-6-one] | 86 | 4.7 | 87 | 0.5 | 5.6 | 100 | 28 | 14 | 100 | 100 | 65 | 2.3 | 100 |  |  |  |
| CN1Cc2nn(C)c(C#N)c2-c2cnc3[nH]cc(c3c2)-c2cn(nc2C(F)(F)F)CCCC1=O [Compound 48, (Z)-31,5-dimethyl-6-oxo-13-(trifluoromethyl)-11H,21H,31H-5-aza-2(3,5)-pyrrolo[2,3-b]pyridina-1(4,1),3(4,3)-dipyrazolacyclononaphane-35-carbonitrile] | 76 | 100 |  | 81 | 97 | 35 | 99 |  | 50 |  | 92 | 84 | 100 | 63 | 50 | 59 |
